Test results published in patent US20120129843A1, “PYRIDYL-THIAZOLYL INHIBITORS OF PRO-MATRIX METALLOPROTEINASE ACTIVATION” (priority 2010, published 2012).

How the values were obtained:
[1] = biological target: T1, MMP9 processing by HFL-1 cells (Homo sapiens, UniProt P14780); assay: Activation of proMMP9 by human fetal lung fibroblast (HFL-1) cultures (Western blot); format: cell-based; details: 3.3 μM, 30 nM elastase, final 72 hrs; mAb-L51/82
T1 construct: host or cells: HFL-1 human fetal lung fibroblasts, TNFα plus neutrophil elastase
Procedure: Compound-α was assessed additionally for ability to block the maturation of proMMP9 to active MMP9 in cultures of human fetal lung fibroblasts (HFL-1, American Type Culture Collection #CCL-153). Unlike rat synoviocytes, HFL-1 cells were unable to process proMMP9 to the active form without addition of neutrophil elastase. […] Rather, the function of elastase in this assay may be to inactivate tissue inhibitors of matrix metalloproteinases (TIMPs) that repress endogenous pathways of MMP9 activation (Am J Respir Crit. Care Med; 1999; 159:1138-46).
HLF-1 were maintained in monolayer culture in DMEM with 10% FCS and were used between passage numbers 5-15. HLF-1 were embedded in collagen gels as described for rat SCW synoviocytes (vida supra). Half mL gels containing 0.4 million cells were dislodged into wells of 12 well Costar plates containing 1 mL/well of DMEM adjusted to contain 0.05% BSA and 100 ng/mL human TNFα (R&D Systems Cat #210-TA/CF). After overnight culture (37° C. and 5% CO2) wells were adjusted to contain an additional 0.5 mL of DMEM containing 0.05% BSA and with or without 13.2 μM Compound-α (final concentration was 3.3 μM Compound-α). Next, cultures were adjusted to contain 30 nM human elastase (Innovative Research). The plates were cultured an additional 72 hrs, at which time MMP9 secreted into the conditioned media was bound to gelatin-sepharose and evaluated by Western blot analysis as described for the rat synoviocyte cultures (vida supra). mAb-51/82 detected three forms of MMP9 in HFL-1 cultures.
These included a form of approximately 100 kD with mobility similar to recombinant rat proMMP9, an approximately 80 kD form with mobility similar to rat active MMP9, and an approximately 86 kD intermediate form. In the absence of Compound-α, most of the MMP9 was present as the 80 kD form. In the presence of Compound-α, the 80 kD form was a minor fraction of the total signal while nearly half of the signal were contributed each by the 100 kD and 86 kD forms. […]
A second experiment was performed to determine if the 80 kD form was mature active MMP9 and to determine the potency of Compound-α as an inhibitor of MMP9 maturation in this assay. HFL-1 cells embedded in collagen gels were cultured as described above in the presence of TNFα overnight and the cultures were then adjusted to contain 30 nM elastase and graded concentrations of Compound-α for an additional 72 hrs at which time MMP9 secreted into the conditioned media was bound to gelatin-sepharose and evaluated by Western blot analysis for active MMP9 using pAb-1246 raised against the N-terminal neoepitope of active MMP9 (Table 5). In the absence of Compound-α, pAb-1246 readily detected MMP9 with an electrophoretic mobility of approximately 80 kD. […]

[2] = biological target: T2, MMP9 in ankles of SCW-induced rats (Rattus norvegicus, UniProt P50282); assay: Pro and active MMP9 in ankles of rats with SCW-induced arthritis by Western blot; format: in vivo; details: Day 26, four hours after AM dose, FIG. 3A lanes 4-9
T2 construct: from tissue; host or cells: tibia-tarsus joints (ankles) of female Lewis rats
Procedure: Hind-limbs were skinned, severed just above the tibia-tarsus joint and below the metatarsals, and the tibia-tarsus joints (ankles) were weighed, snap frozen and pulverized on dry ice using a hammer and anvil. The pulverized tissue was suspended in 3 volumes (w:v) of ice-cold homogenization buffer containing 50 mM Tris pH 7.5, 150 mM NaCl, 5 mM EDTA, 1% Triton X100, 0.05% Brij 30, 10% dimethylsulfoxide and Complete EDTA-free Protease Inhibitor Cocktail (Roche Diagnostics). The suspended tissue was homogenized sequentially with a Kinematica AG Polytron and a Dounce homogenizer. Homogenates were centrifuged at 16,000×g for 10 min at 4° C. and the soluble fractions were saved. Dimethylsulfoxide was removed from a portion of each soluble fraction using PD MiniTrap™ G-25 desalting columns (GE Healthcare). Homogenates (0.25 mL), free of DMSO, were diluted with an equal volume of binding buffer (i.e., homogenization buffer without dimethylsufoxide) and adjusted to contain 50 μL of a 50% slurry of gelatin-conjugated sepharose. […]
To induce arthritis, Female Lewis (LEW/N) rats, 5-6 weeks of age (80-100 g) were injected (i.p.) with SCW PG-PS as described above. […] Each ankle was measured 3 times and averaged, and treatment groups were randomized based on ankle thickness (Table 6). […]

T1 sequence (P14780 20-707): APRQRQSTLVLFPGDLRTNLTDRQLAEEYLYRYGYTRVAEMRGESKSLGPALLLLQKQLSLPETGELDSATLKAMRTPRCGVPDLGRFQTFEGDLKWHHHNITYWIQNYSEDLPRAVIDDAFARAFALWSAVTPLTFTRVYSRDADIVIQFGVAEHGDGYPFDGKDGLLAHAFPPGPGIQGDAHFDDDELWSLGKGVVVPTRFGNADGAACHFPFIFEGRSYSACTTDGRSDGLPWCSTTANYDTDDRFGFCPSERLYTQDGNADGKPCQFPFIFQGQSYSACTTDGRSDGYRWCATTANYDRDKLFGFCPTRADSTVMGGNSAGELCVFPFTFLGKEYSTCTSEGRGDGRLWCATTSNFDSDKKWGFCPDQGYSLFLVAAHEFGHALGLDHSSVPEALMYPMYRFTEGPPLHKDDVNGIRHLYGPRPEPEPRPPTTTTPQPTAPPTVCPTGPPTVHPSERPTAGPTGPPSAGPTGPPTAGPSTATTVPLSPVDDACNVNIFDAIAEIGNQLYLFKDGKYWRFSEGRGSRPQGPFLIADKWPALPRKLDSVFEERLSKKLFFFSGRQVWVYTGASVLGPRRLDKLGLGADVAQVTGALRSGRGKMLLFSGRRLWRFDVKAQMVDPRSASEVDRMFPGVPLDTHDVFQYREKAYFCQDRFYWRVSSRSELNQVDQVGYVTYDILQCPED
T2 sequence (P50282 20-708): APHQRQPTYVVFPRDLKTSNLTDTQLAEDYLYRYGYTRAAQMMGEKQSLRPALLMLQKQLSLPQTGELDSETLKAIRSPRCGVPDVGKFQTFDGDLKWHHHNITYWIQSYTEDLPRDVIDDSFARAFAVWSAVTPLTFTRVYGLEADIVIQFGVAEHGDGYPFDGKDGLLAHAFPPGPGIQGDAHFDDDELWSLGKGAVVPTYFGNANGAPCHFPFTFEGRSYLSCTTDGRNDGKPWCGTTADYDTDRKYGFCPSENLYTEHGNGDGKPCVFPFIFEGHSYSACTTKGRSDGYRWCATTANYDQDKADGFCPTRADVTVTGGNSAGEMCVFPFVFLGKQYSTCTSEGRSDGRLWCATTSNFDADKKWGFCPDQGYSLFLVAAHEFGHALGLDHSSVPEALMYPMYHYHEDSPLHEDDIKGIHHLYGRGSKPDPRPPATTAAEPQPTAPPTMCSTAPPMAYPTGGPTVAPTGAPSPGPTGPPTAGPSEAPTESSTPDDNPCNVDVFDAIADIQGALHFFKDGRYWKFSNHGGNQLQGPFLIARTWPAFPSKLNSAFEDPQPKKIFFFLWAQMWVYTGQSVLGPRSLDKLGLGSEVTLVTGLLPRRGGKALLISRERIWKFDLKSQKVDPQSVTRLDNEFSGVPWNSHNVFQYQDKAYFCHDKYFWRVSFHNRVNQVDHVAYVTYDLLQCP

Cc1nc(C)c(-c2csc(Nc3cc(S(N)(=O)=O)ccc3OC(C)C)n2)s1 [Compound-α, 3-(2′,4′-Dimethyl-[4,5′]bithiazolyl-2-ylamino)-4-isopropoxy-benzenesulfonamide.HBr]
Percent of total signal, 80 kD [1]: 7% | Percent of total signal, 86 kD [1]: 47% | Percent of total signal, 100 kD [1]: 46% | Signal, Total [1]: 91346 INT*mm^2 | abundance of proMMP9 in ankles [2]: did not reduce the abundance of proMMP9 | abundance of proMMP9 in ankles ([2]; listed as Compound α): did not reduce the abundance of proMMP-9
